Laboratory results taken from patent publication US20260256792A1, “TREATMENT OF CHRONIC SPONTANEOUS URTICARIA BY ADMINISTERING (R)-2-[3-[4-AMINO-3-(2-FLUORO-4-PHENOXY-PHENYL)PYRAZOLO[3,4-D]PYRIMIDIN-1-YL]PIPERIDINE-1-CARBONYL]-4-METHYL-4-[4-(OXETAN-3-YL)PIPERAZIN-1-YL]PENT-2-ENENITRILE” (priority 2023, published 2026).

What was measured:
[1] = test system: mouse model of immune thrombocytopenia; details: mouse ITP model; cited from earlier work
[2] = test system: moderate-to-severe chronic spontaneous urticaria (CSU); assay: Phase 2 CSU study: Patient Global Impression of Severity (PGIS); type: in vivo, human; details: for PGIS Change from baseline Mean (SD) / PGIS Change from baseline Median / PGIS Median / PGIS Percent change from baseline Mean (SD) / PGIS Percent change from baseline Median / PGIS category Mild, patients / PGIS category Moderate, patients / PGIS category None, patients / PGIS category Severe, patients: omalizumab-naïve population; for PGIS % Change difference for rilzabrutinib vs. placebo LS Mean (95% CI) / PGIS % Change from baseline LS Mean (SE) / PGIS Change difference for rilzabrutinib vs. placebo LS Mean (95% CI) / PGIS Change from baseline LS Mean (SE): omalizumab-naïve, ANCOVA
Excerpt: The study comprises a 12 week, randomized, double-blind, placebo-controlled, multi-center, dose-ranging efficacy and safety phase, followed by a 40 week open label extension (OLE) phase (see FIG. 1).
The study consists of three phases and an optional OLE phase.
The PGIS is a 1-item measure that asks participants to provide a self-assessment of their overall CSU severity for the past week on a 4 point scale. Response choices are: “None”, “Mild”, “Moderate” and “Severe”. The PGIC is a 1-item measure that asks the participant to provide a self-assessment of overall change in their CSU since the participant started taking the study medication on a 7-point scale. The response options range from “Very Much Better” to “Very Much Worse.” Patients were to complete questionnaires for the 2 items during their site visit.

[3] = test system: fetal development or male fertility; details: preclinical; cited from earlier work

## CC(C)(C=C(C#N)C(=O)N1CCC[C@@H](n2nc(-c3ccc(Oc4ccccc4)cc3F)c3c(N)ncnc32)C1)N1CCN(C2COC2)CC1 [rilzabrutinib, (R)-2-[3-[4-amino-3-(2-fluoro-4-phenoxy-phenyl)pyrazolo[3,4-d]pyrimidin-1-yl]piperidine-1-carbonyl]-4-methyl-4-[4-(oxetan-3-yl)piperazin-1-yl]pent-2-enenitrile]
[1]
  platelet loss: reduction
[2]; 400 mg TID
  quality of life as measured by PGIS: improvement
[2]; Week 2, 400 mg BID
  PGIS Change from baseline Mean (SD): −0.65
  PGIS Change from baseline Median: 0.00
  PGIS Median: 2.00
  PGIS Percent change from baseline Mean (SD): −23.12%
  PGIS Percent change from baseline Median: 0.00%
  PGIS category Mild, patients: 8 (25.8)
  PGIS category Moderate, patients: 14 (45.2)
  PGIS category None, patients: 5 (16.1)
  PGIS category Severe, patients: 4 (12.9)
  PGIS % Change difference for rilzabrutinib vs. placebo LS Mean (95% CI): −7.56 (−24.17, 9.05) %
  PGIS % Change from baseline LS Mean (SE): −26.23 (6.28) %
  PGIS Change difference for rilzabrutinib vs. placebo LS Mean (95% CI): −0.26 (−0.63, 0.11)
  PGIS Change from baseline LS Mean (SE): −0.76 (0.14)
[2]; Week 2, 400 mg QPM
  PGIS Change from baseline Mean (SD): −0.48
  PGIS Change from baseline Median: 0.00
  PGIS Median: 2.00
  PGIS Percent change from baseline Mean (SD): −17.68%
  PGIS Percent change from baseline Median: 0.00%
  PGIS category Mild, patients: 8 (24.2)
  PGIS category Moderate, patients: 17 (51.5)
  PGIS category None, patients: 0
  PGIS category Severe, patients: 8 (24.2)
  PGIS % Change difference for rilzabrutinib vs. placebo LS Mean (95% CI): 0.86 (−15.86, 17.59) %
  PGIS % Change from baseline LS Mean (SE): −17.80 (6.05) %
  PGIS Change difference for rilzabrutinib vs. placebo LS Mean (95% CI): 0.03 (−0.34, 0.41)
  PGIS Change from baseline LS Mean (SE): −0.47 (0.14)
[2]; Week 2, 400 mg TID
  PGIS Change from baseline Mean (SD): −0.94
  PGIS Change from baseline Median: 1.00
  PGIS Median: 1.00
  PGIS Percent change from baseline Mean (SD): −41.92%
  PGIS Percent change from baseline Median: −50.00%
  PGIS category Mild, patients: 17 (50.0)
  PGIS category Moderate, patients: 9 (26.5)
  PGIS category None, patients: 4 (11.8)
  PGIS category Severe, patients: 4 (11.8)
  PGIS % Change difference for rilzabrutinib vs. placebo LS Mean (95% CI): −22.00 (−38.77, −5.22) %
  PGIS % Change from baseline LS Mean (SE): −40.66 (6.06) %
  PGIS Change difference for rilzabrutinib vs. placebo LS Mean (95% CI): −0.46 (−0.83, −0.09)
  PGIS Change from baseline LS Mean (SE): −0.96 (0.13)
[2]; Week 4, 400 mg BID
  PGIS Change from baseline Mean (SD): −0.70
  PGIS Change from baseline Median: 0.00
  PGIS Median: 2.00
  PGIS Percent change from baseline Mean (SD): −27.78%
  PGIS Percent change from baseline Median: 0.00%
  PGIS category Mild, patients: 10 (30.3)
  PGIS category Moderate, patients: 15 (45.5)
  PGIS category None, patients: 5 (15.2)
  PGIS category Severe, patients: 3 (9.1)
  PGIS % Change difference for rilzabrutinib vs. placebo LS Mean (95% CI): −1.31 (−17.26, 14.65) %
  PGIS % Change from baseline LS Mean (SE): −29.83 (5.99) %
  PGIS Change difference for rilzabrutinib vs. placebo LS Mean (95% CI): −0.12 (−0.48, 0.25)
  PGIS Change from baseline LS Mean (SE): −0.81 (0.13)
[2]; Week 4, 400 mg QPM
  PGIS Change from baseline Mean (SD): −0.65
  PGIS Change from baseline Median: −0.50
  PGIS Median: 2.00
  PGIS Percent change from baseline Mean (SD): −25.49%
  PGIS Percent change from baseline Median: −16.67%
  PGIS category Mild, patients: 10 (29.4)
  PGIS category Moderate, patients: 15 (44.1)
  PGIS category None, patients: 1 (2.9)
  PGIS category Severe, patients: 8 (23.5)
  PGIS % Change difference for rilzabrutinib vs. placebo LS Mean (95% CI): 3.06 (−12.83, 18.95) %
  PGIS % Change from baseline LS Mean (SE): −25.46 (5.77) %
  PGIS Change difference for rilzabrutinib vs. placebo LS Mean (95% CI): 0.09 (−0.27, 0.44)
  PGIS Change from baseline LS Mean (SE): −0.61 (0.13)
[2]; Week 4, 400 mg TID
  PGIS Change from baseline Mean (SD): −1.07
  PGIS Change from baseline Median: 1.00
  PGIS Median: 1.00
  PGIS Percent change from baseline Mean (SD): −43.10%
  PGIS Percent change from baseline Median: −50.00%
  PGIS category Mild, patients: 15 (51.7)
  PGIS category Moderate, patients: 9 (31.0)
  PGIS category None, patients: 3 (10.3)
  PGIS category Severe, patients: 2 (6.9)
  PGIS % Change from baseline LS Mean (SE): −41.04 (6.24) %
  PGIS Change difference for rilzabrutinib vs. placebo LS Mean (95% CI): −0.27 (−0.62, 0.09)
  PGIS Change from baseline LS Mean (SE): −0.96 (0.13)
[2]; Week 8, 400 mg BID
  PGIS Change from baseline Mean (SD): −1.00
  PGIS Change from baseline Median: −1.00
  PGIS Median: 1.00
  PGIS Percent change from baseline Mean (SD): −44.95%
  PGIS Percent change from baseline Median: −50.00%
  PGIS category Mild, patients: 13 (39.4)
  PGIS category Moderate, patients: 7 (21.2)
  PGIS category None, patients: 9 (27.3)
  PGIS category Severe, patients: 4 (12.1)
  PGIS % Change difference for rilzabrutinib vs. placebo LS Mean (95% CI): −12.18 (−30.63, 6.27) %
  PGIS % Change from baseline LS Mean (SE): −46.44 (6.74) %
  PGIS Change difference for rilzabrutinib vs. placebo LS Mean (95% CI): −0.25 (−0.67, 0.16)
[2]; Week 8, 400 mg QPM
  PGIS Change from baseline Mean (SD): 0.67
  PGIS Change from baseline Median: −1.00
  PGIS Median: 2.00
  PGIS Percent change from baseline Mean (SD): −25.25%
  PGIS Percent change from baseline Median: −33.33%
  PGIS category Mild, patients: 10 (30.3)
  PGIS category Moderate, patients: 14 (42.4)
  PGIS category None, patients: 1 (3.0)
  PGIS category Severe, patients: 8 (24.2)
  PGIS % Change difference for rilzabrutinib vs. placebo LS Mean (95% CI): 9.27 (−9.09, 27.62) %
  PGIS % Change from baseline LS Mean (SE): −24.99 (6.69) %
  PGIS Change difference for rilzabrutinib vs. placebo LS Mean (95% CI): 0.24 (−0.17, 0.65)
  PGIS Change from baseline LS Mean (SE): −0.61 (0.15)
[2]; Week 8, 400 mg TID
  PGIS Change from baseline Mean (SD): −1.13
  PGIS Change from baseline Median: −1.00
  PGIS Median: 1.00
  PGIS Percent change from baseline Mean (SD): 47.22%
  PGIS Percent change from baseline Median: −50.00%
  PGIS category Mild, patients: 12 (40.0)
  PGIS category Moderate, patients: 8 (26.7)
  PGIS category None, patients: 6 (20.0)
  PGIS category Severe, patients: 4 (13.3)
  PGIS % Change difference for rilzabrutinib vs. placebo LS Mean (95% CI): −11.39 (−30.26, 7.48) %
  PGIS % Change from baseline LS Mean (SE): −45.65 (7.05) %
  PGIS Change difference for rilzabrutinib vs. placebo LS Mean (95% CI): −0.17 (−0.58, 0.25)
  PGIS Change from baseline LS Mean (SE): −1.02 (0.15)
[2]; Week 12, 400 mg BID
  PGIS Change from baseline Mean (SD): −1.03
  PGIS Change from baseline Median: −1.00
  PGIS Median: 1.00
  PGIS Percent change from baseline Mean (SD): −43.55%
  PGIS Percent change from baseline Median: −50.00%
  PGIS category Mild, patients: 6 (19.4)
  PGIS category Moderate, patients: 10 (32.3)
  PGIS category None, patients: 12 (38.7)
  PGIS category Severe, patients: 3 (9.7)
  PGIS % Change difference for rilzabrutinib vs. placebo LS Mean (95% CI): −13.46 (−33.69, 6.76) %
  PGIS % Change from baseline LS Mean (SE): −45.76 (7.46) %
  PGIS Change difference for rilzabrutinib vs. placebo LS Mean (95% CI): −0.34 (−0.77, 0.10)
  PGIS Change from baseline LS Mean (SE): −1.14 (0.16)
[2]; Week 12, 400 mg QPM
  PGIS Change from baseline Mean (SD): −0.68
  PGIS Change from baseline Median: −1.00
  PGIS Median: 2.00
  PGIS Percent change from baseline Mean (SD): −27.45%
  PGIS Percent change from baseline Median: −33.33%
  PGIS category Mild, patients: 10 (29.4)
  PGIS category Moderate, patients: 15 (44.1)
  PGIS category None, patients: 1 (2.9)
  PGIS category Severe, patients: 8 (23.5)
  PGIS % Change difference for rilzabrutinib vs. placebo LS Mean (95% CI): 5.87 (−13.65, 25.38) %
  PGIS % Change from baseline LS Mean (SE): −26.42 (7.16) %
  PGIS Change difference for rilzabrutinib vs. placebo LS Mean (95% CI): 0.21 (−0.22, 0.63)
  PGIS Change from baseline LS Mean (SE): −0.59 (0.15)
[2]; Week 12, 400 mg TID
  PGIS Change from baseline Mean (SD): −1.17
  PGIS Change from baseline Median: −1.00
  PGIS Median: 1.00
  PGIS Percent change from baseline Mean (SD): −47.22%
  PGIS Percent change from baseline Median: −50.00%
  PGIS category Mild, patients: 13 (43.3)
  PGIS category Moderate, patients: 8 (26.7)
  PGIS category None, patients: 6 (20.0)
  PGIS category Severe, patients: 3 (10.0)
  PGIS % Change difference for rilzabrutinib vs. placebo LS Mean (95% CI): −12.67 (−32.97, 7.63) %
  PGIS % Change from baseline LS Mean (SE): −44.96 (7.44) %
  PGIS Change difference for rilzabrutinib vs. placebo LS Mean (95% CI): −0.24 (−0.67, 0.19)
  PGIS Change from baseline LS Mean (SE): −1.04 (0.16)
[3]
  reproductive toxicity: not expected to harm fetal development or male fertility
